Data reported in patent US7709532B2, “Methods for improving bioavailability of a renin inhibitor” (Novartis AG, priority 2004, dated 2010).
Values belong to the molecule of their own block, whether it stands above or below them.

Legend:
[1] = in vitro; conditions: human, Caco-2
Description: (§1) Alternatively, the in vitro transporter affinity of a drug substance can be determined and approximated by a Caco-2 cell assay as described, e.g., in Camenisch et al., Pharm. Act. Helv. 71, 309-327 (1996), or as illustrated herein in the Examples. The identification of the transporter protein and the efficacy of a compound to inhibit the efflux system involved may as well be determined in the Caco-2 cell assay.
(§2) Caco-2 cell monolayers grown on PET filters for 21-25 days are used for the transport experiments. The flux of compounds across Caco-2 cell monolayers grown on PET filters as well as across PET filters alone without Caco-2 cells is determined as follows: Prior to the transport experiment, the culture medium in the acceptor compartment (0.2 mL for apical and 1.0 mL for basolateral sides) is replaced with acceptor solution (HBSS, when relevant containing the inhibitor of interest) preincubated at 37° C. To start the experiment, the medium in the donor compartment (0.35 mL for apical and 1.15 mL for basolateral sides) is replaced with donor solution (compound in HBSS, when relevant containing inhibitor of interest) pre-incubated at 37° C. Aliquots of 150 μL are removed from the donor and the acceptor side after about 1 and 120 min. Transport experiments in both apical-to-basolateral and basolateral-to-apical directions are performed in triplicate at 37° C. in an incubator without shaking.
(§3) The suitability of Caco-2 cells for transport experiments is examined by measuring the permeability of [^3H]-mannitol at >0.1 μM and [^3H]-propranolol at >0.1 μM from apical to basolateral sides for 120 min in a total of 6 representative cell monolayers (3 for each compound) within the same batch of cells.
(§4) Radioactive samples are analyzed by liquid scintillation counting. All other non-radiolabeled samples are kept frozen at −20° C. until analysis by liquid chromatography/tandem mass spectrometry (LC-MS/MS).
(§5) Transport values of the compounds tested are determined using the following equation (Artursson et al., Biochem. Biophys. Res. Comm. 175: 880-885, 1991):
(§6) Papp values are presented as means ± standard deviations of the transport experiments performed (n=3). The statistical significance in differences between any two given data sets is examined by t-test. The probability level for assignment of significance of difference is p<0.025. All statistical analyses were performed using Microsoft EXCEL 5.0c.

[2] = In situ bile-duct cannulated rat experiment (biliary clearance); conditions: for effect on 14C concentration in plasma: i.v. bolus of inhibitor (PSC833 10 mg/kg, probenecid 50 mg/kg) during constant infusion of [14C]-SPP100 hemifumarate
Description: The effect in situ of co-administration of an efflux protein inhibitor, e.g., a MDR1 inhibitor, on the biliary excretion of a renin inhibitor may be investigated by comparing the amount of compound excreted into bile, in the presence and the absence of an efflux protein inhibitor.
The animals that may be used are, e.g., male albino HAN:WIST rats, 4 to 5 animals in each treatment group.
For all treatment groups blood samples are collected at 0.5, 1, 1.33, 1.67, 2, 2.33, 2.67, 3 h after treatment and blood is immediately processed to plasma. Bile is collected for the time frame of 1 to 3 h in intervals of 20 min.
• for total radioactivity in all samples: LSC; LOQ 3.4 μg/L for plasma and bile; and • for detection of metabolite pattern in selected pools of samples: HPLC with radioactivity detection.

[3] = test system: Caco-2 cell monolayers; test: in vitro; conditions: human, Caco-2, 120 min
Description: as §1, §2, §3, §4, §5, §6

[4] = In vivo bioavailability experiment, single oral administration; design: species or system rat; conditions: for Cmax / Tmax: male, HAN:WIST, rat, plasma, po
Description: Similarly, the effect in vivo of co-administration of an efflux protein inhibitor, e.g., a MDR1 inhibitor, on the bioavailability of a renin inhibitor may be investigated by comparing the pharmacokinetic parameters, Cmax and AUCs, in the presence and the absence of an efflux protein inhibitor.
The animals that may be used are, e.g., male albino HAN:WIST rats, 5 animals in each treatment group.
Plasma is used for biochemical analysis.

[5] = test system: T1, COCCCOc1cc(C[C@@H](C[C@H](N)[C@@H](O)C[C@H](C(=O)NCC(C)(C)C(N)=O)C(C)C)C(C)C)ccc1OC; test: ATPase assay in membrane vesicles expressing high levels of MDR1; assay type: biochemical, human; conditions: other: membrane vesicles expressing high levels of MDR1; pH 7.4; 37.0 °C
T1 construct: host or cells: Sf9 (Spodoptera frugiperda) membrane vesicles
Description: The efflux protein(s) involved in the drug efflux of a drug substance may be identified, and the corresponding kinetic parameters may be determined, i.e., Michaelis-Menten Constant and Maximal Drug Transport (Km and Jmax) using methods known in the art, e.g., by an ATPase assay using Sf9 (Spodoptera fruigiperda) membrane vesicles expressing high levels of the selected ABC transporter. In this assay the ABC transporters remove substrates out of cells by using ATP hydrolysis as an energy source. ATP hydrolysis yields inorganic phosphate (Pi), which can be detected by a simple colorimetric reaction. The amount of Pi liberated by the transporter is proportional to the activity of the transporter. Membrane preparations containing ABC transporters show a baseline ATPase activity that varies for different transporters. […]
Efflux mediated by the human MDR1, the human MRP1 or the human MRP2 is measured by incubating the purified membrane vesicles in the absence and the presence of a stimulating agent (Verapamil [40 μM] for MDR1, NEM-GS [10 mM] for MRP1 and Probenecid [1 mM] for MRP2) with different concentrations of a drug substance [0.046, 0.137, 0.41, 1.23, 3.7, 11.1, 33.3 and 100 μM] in transport buffer at pH 7.4 at 37° C. […]
After incubating the OD is measured at 730 nm. Using a previously determined phosphate standard curve the Pi liberated [nmol/well] can be calculated. […]

[6] = 6 mg base/kg, rat plasma, oral SPP100 hemifumarate 6 mg base/kg + vehicle
[7] = 6 mg/kg, oral SPP100 6 mg base/kg + PSC833 5 mg/kg
[8] = 6 mg/kg, oral SPP100 6 mg base/kg + PSC833 12.5 mg/kg
[9] = 6 mg/kg, oral SPP100 6 mg base/kg + PSC833 25 mg/kg
[10] = 6 mg/kg, oral SPP100 6 mg base/kg + PSC833 50 mg/kg
[11] = probenecid 50 mg/kg i.v. during constant infusion of [14C]-SPP100 hemifumarate

- Papp A→B at 120 min [1]: < 0.5 ×10⁻⁶ cm/s
Molecule: OC[C@@H](O)[C@@H](O)[C@H](O)[C@H](O)CO [Mannitol, reference compound]

- effect on 14C concentration in bile ([2]; PSC833 10 mg/kg i.v. during constant infusion of [14C]-SPP100 hemifumarate): significant decrease
- effect on 14C concentration in plasma [2]: trend towards a time dependent increase
- biliary clearance of [14C]-labeled compounds, % of the value obtained before administration ([2]; i.v. bolus of inhibitor during constant i.v. infusion of [14C]-SPP100 hemifumarate, PSC833 10 mg/kg): approximately 7%
Molecule: C/C=C/C[C@@H](C)C(=O)[C@H]1C(=O)N[C@@H](C(C)C)C(=O)N(C)CC(=O)N(C)[C@@H](CC(C)C)C(=O)N[C@@H](C(C)C)C(=O)N(C)[C@@H](CC(C)C)C(=O)N[C@@H](C)C(=O)N[C@H](C)C(=O)N(C)[C@@H](CC(C)C)C(=O)N(C)[C@@H](CC(C)C)C(=O)N(C)[C@@H](C(C)C)C(=O)N1C [PSC833]

- Papp A→B at 120 min [1]: < 15 ×10⁻⁶ cm/s
Molecule: CC(C)NCC(O)COc1cccc2ccccc12 (centres unmarked) [Propranolol, reference compound]

- Papp A→B at 120 min, 1 μM [1]: ~0.0333 ×10⁻⁶ cm/s
- Papp A→B at 120 min, 10 µM [1]: ~1.17 ×10⁻⁶ cm/s
- Papp B→A at 120 min, 1 µM [1]: ~1.67 ×10⁻⁶ cm/s
- intrinsic permeability [3]: < 80%
- Cmax [4, 6]: ~24.8 ng/mL
- Tmax [4, 6]: 0.44 ± 0.1 h
- Cmax [4, 7]: 35.7 ± 18 ng/mL
- Tmax [4, 7]: 4.8 ± 1.8 h
- Cmax [4, 8]: 115 ± 93 ng/mL
- Tmax [4, 8]: 4.95 ± 4.2 h
- Cmax [4, 9]: 81.4 ± 19 ng/mL
- Tmax [4, 9]: 15.2 ± 18 h
- Cmax [4, 10]: 26.7 ± 18 ng/mL
- Tmax [4, 10]: 3.06 ± 1.9 h
- dose-normalized AUC(0-tlast), times higher than in the vehicle group ([4]; oral SPP100 6 mg base/kg + PSC833 5 mg/kg): about 23 times
- dose-normalized AUC(0-tlast), times higher than in the vehicle group ([4]; oral SPP100 6 mg base/kg + PSC833 12.5 mg/kg): ~69 times
- dose-normalized AUC(0-tlast), times higher than in the vehicle group ([4]; oral SPP100 6 mg base/kg + PSC833 25 mg/kg): ~76 times
- dose-normalized AUC(0-tlast), times higher than in the vehicle group ([4]; oral SPP100 6 mg base/kg + PSC833 50 mg/kg): ~17 times
- increase of dose-normalized AUC(0-tlast) compared to control group solely dosed with SPP100 ([4]; orally dosed rats, in the presence of PSC833): about 70 fold
- dose-normalized AUC(0-tlast) ([4]; rat plasma, oral SPP100 hemifumarate 6 mg base/kg + vehicle): 2.38±3.4 (ng*h/mL)/(mg/kg)
Molecule: COCCCOc1cc(C[C@@H](C[C@H](N)[C@@H](O)C[C@H](C(=O)NCC(C)(C)C(N)=O)C(C)C)C(C)C)ccc1OC [SPP100, (2S,4S,5S,7S)-5-amino-4-hydroxy-2-isopropyl-7-[4-methoxy-3-(3-methoxy-propoxy)-benzyl]-8-methyl-nonanoic acid (2-carbamoyl-2-methyl-propyl)-amide hemifumarate]

- effect on 14C concentration in plasma [2]: no effect
- biliary clearance before and after administration [2, 11]: similar
- decrease of the [14C] concentration in bile vs value prior to administration [2, 11]: about 40%
Molecule: CCCN(CCC)S(=O)(=O)c1ccc(C(=O)O)cc1 [probenecid]

Molecule: human MDR1 (Homo sapiens)
- Km [5]: 3 µM
